Counter-ions that a name gives are not always drawn.

T1 sequence (Q9H3N8 whole entry): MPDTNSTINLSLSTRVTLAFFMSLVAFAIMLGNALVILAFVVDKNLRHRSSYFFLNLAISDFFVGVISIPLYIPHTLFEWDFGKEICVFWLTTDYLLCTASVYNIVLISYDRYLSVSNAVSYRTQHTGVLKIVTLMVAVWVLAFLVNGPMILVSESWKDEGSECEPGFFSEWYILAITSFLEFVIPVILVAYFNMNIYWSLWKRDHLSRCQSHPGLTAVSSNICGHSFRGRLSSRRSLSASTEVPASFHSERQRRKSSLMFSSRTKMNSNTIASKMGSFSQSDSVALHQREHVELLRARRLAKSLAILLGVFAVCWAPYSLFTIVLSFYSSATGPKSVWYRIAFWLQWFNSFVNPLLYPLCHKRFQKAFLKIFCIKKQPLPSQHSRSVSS

The first experiment has as its target T1, human histamine H4 receptor (Homo sapiens, UniProt Q9H3N8).
T1 construct: expressed in transfected cells; host or cells: SK-N-MC cells or COS7 cells, transiently transfected; cell membranes used
Description: Binding Assay on Recombinant Human Histamine H4 Receptor.
Settings: not given
Here is the method:
Binding Assay on Recombinant Human Histamine H4 Receptor
SK-N-MC cells or COS7 cells were transiently transfected with pH4R and grown in 150 cm^2 tissue culture dishes. Cells were washed with saline solution, scraped with a cell scraper and collected by centrifugation (1000 rpm, 5 min). Cell membranes were prepared by homogenization of the cell pellet in 20 mM Tris-HCl with a polytron tissue homogenizer for 10 sec at high speed. Homogenate was centrifuged at 1000 rpm for 5 min at 4° C. […] The final pellet was resuspended in 50 mM Tris-HCl. Cell membranes were incubated with ^3H-histamine (5-70 nM) in the presence or absence of excess histamine (10,000 nM). […] Membranes were harvested by rapid filtration over Whatman GF/C filters and washed 4 times with ice-cold 50 mM Tris HCl. Filters were then dried, mixed with scintillant and counted for radioactivity. SK-N-MC or COS7 cells expressing human histamine H4 receptor were used to measure the affinity of binding of other compounds and their ability to displace ^3H-ligand binding by incubating the above-described reaction in the presence of various concentrations of inhibitor or compound to be tested.
What is called Ki is the dissociation constant of the complex between target and ligand, obtained from inhibition or displacement. With `Nc1nc(N2C[C@@H]3C[C@H]2CN3)c2oc3ccc(Cl)cc3c2n1` [Example 11, (S,S)-8-Chloro-4-(2,5-diaza-bicyclo[2.2.1]hept-2-yl)-benzo[4,5]furo[3,2-d]pyrimidin-2-ylamine], the Ki came to 25 nM.

As to `Nc1nc(N2CCN3CCCC3C2)c2oc3ccc(Br)cc3c2n1` (stereo not shown) [Example 20, 8-Bromo-4-(hexahydro-pyrrolo[1,2-a]pyrazin-2-yl)-benzo[4,5]furo[3,2-d]pyrimidin-2-ylamine trifluoroacetic acid salt], the Ki came out at 4.7 nM.

Turning to `Nc1nc(N2CCN3CCCC3C2)c2oc3ccc(F)cc3c2n1` (stereo not shown) [Example 40, 8-Fluoro-4-(hexahydro-pyrrolo[1,2-a]pyrazin-2-yl)-benzo[4,5]furo[3,2-d]pyrimidin-2-ylamine trifluoroacetic acid salt], the Ki came out at 44 nM.

With `Nc1nc(N2CC3CCCNC3C2)c2oc3ncccc3c2n1` (stereo not shown) [Example 43, 8-(Octahydro-pyrrolo[3,4-b]pyridin-6-yl)-9-oxa-1,5,7-triaza-fluoren-6-ylamine], the Ki was found to be 87 nM.

The experiment is the same for the next values; noted with them: competition binding with 3H-histamine (5 nM), membranes of SK-N-MC or COS7 cells expressing human H4 receptor; Cheng-Prusoff, KD 5 nM; average of results obtained; read-out: Ki.
Consider `CN1CCCN(c2nc(N)nc3c2oc2ccc(Cl)cc23)CC1` [Example 10, 8-Chloro-4-(4-methyl-[1,4]diazepan-1-yl)-benzo[4,5]furo[3,2-d]pyrimidin-2-ylamine], for which the Ki was 0.74 nM.

As for `CNC1CCN(c2nc(N)nc3c2oc2ccc(Cl)cc23)C1` (stereo not shown) [Example 12, 8-Chloro-4-(3-methylamino-pyrrolidin-1-yl)-benzo[4,5]furo[3,2-d]pyrimidin-2-ylamine], the Ki was determined as 0.86 nM.

`Nc1nc(N2CCC[C@H](N)C2)c2oc3ccc(Cl)cc3c2n1` [Example 13, (S)-4-(3-Amino-piperidin-1-yl)-8-chloro-benzo[4,5]furo[3,2-d]pyrimidin-2-ylamine trifluoroacetic acid salt]: the Ki is 9.6 nM.

With `Nc1nc(N2CCNCC2)c2oc3ccc(Cl)cc3c2n1` [Example 14, 8-Chloro-4-piperazin-1-yl-benzo[4,5]furo[3,2-d]pyrimidin-2-ylamine trifluoroacetic acid salt], the Ki worked out at 1.1 nM.

For `CN(C)C1CCN(c2nc(N)nc3c2oc2ccc(Cl)cc23)C1` (stereo not shown) [Example 15, 8-Chloro-4-(3-dimethylamino-pyrrolidin-1-yl)-benzo[4,5]furo[3,2-d]pyrimidin-2-ylamine trifluoroacetic acid salt], the Ki stood at 6.2 nM.

On to `Nc1nc(N2CCC(N)C2)c2oc3ccc(Cl)cc3c2n1` (stereo not shown) [Example 16, 4-(3-Amino-pyrrolidin-1-yl)-8-chloro-benzo[4,5]furo[3,2-d]pyrimidin-2-ylamine trifluoroacetic acid salt], for which the Ki came to 2.3 nM.

For the molecule `CN[C@H]1CCN(c2nc(N)nc3c2oc2ccc(Cl)cc23)C1` [Example 17, (S)-8-Chloro-4-(3-methylamino-pyrrolidin-1-yl)-benzo[4,5]furo[3,2-d]pyrimidin-2-ylamine], the Ki was 2.1 nM.

On to `CN[C@@H]1CCN(c2nc(N)nc3c2oc2ccc(Cl)cc23)C1` [Example 18, (R)-8-Chloro-4-(3-methylamino-pyrrolidin-1-yl)-benzo[4,5]furo[3,2-d]pyrimidin-2-ylamine], for which the Ki turned out to be 0.42 nM.

As to `CN[C@@H]1CCN(c2nc(N)nc3c2oc2ccc(Br)cc23)C1` [Example 19, (R)-8-Bromo-4-(3-methylamino-pyrrolidin-1-yl)-benzo[4,5]furo[3,2-d]pyrimidin-2-ylamine trifluoroacetic acid salt], the inhibition constant (Ki) was 0.74 nM.

For the molecule `Nc1nc(N2CCC(N)C2)c2oc3ccccc3c2n1` (stereo not shown) [Example 21, 4-(3-Amino-pyrrolidin-1-yl)-benzo[4,5]furo[3,2-d]pyrimidin-2-ylamine trifluoroacetic acid salt], the Ki came to 5.7 nM.

Turning to `CN(C)[C@@H]1CCN(c2nc(N)nc3c2oc2ccccc23)C1` [Example 22, (R)-4-(3-Dimethylamino-pyrrolidin-1-yl)-benzo[4,5]furo[3,2-d]pyrimidin-2-ylamine trifluoroacetic acid salt], the Ki is 12 nM.

As for `Nc1nc(N2CCNCC2)c2oc3ccccc3c2n1` [Example 23, 4-piperazin-1-yl-benzo[4,5]furo[3,2-d]pyrimidin-2-ylamine trifluoroacetic acid salt], the Ki was 21 nM.

On to `CN(C)[C@@H]1CCN(c2nc(N)nc3c2oc2ccc(Cl)cc23)C1` [Example 24, (R)-8-Chloro-4-(3-dimethylamino-pyrrolidin-1-yl)-benzo[4,5]furo[3,2-d]pyrimidin-2-ylamine trifluoroacetic acid salt], for which the Ki was 5.5 nM.

Take `Nc1nc(N2CC[C@@H](N)C2)c2oc3ccc(Cl)cc3c2n1` [Example 25, (R)-4-(3-Amino-pyrrolidin-1-yl)-8-chloro-benzo[4,5]furo[3,2-d]pyrimidin-2-ylamine trifluoroacetic acid salt]: the Ki is 2.4 nM.

Regarding `NC[C@@H]1CCN(c2nc(N)nc3c2oc2ccc(Cl)cc23)C1` [Example 26, (S)-4-(3-Aminomethyl-pyrrolidin-1-yl)-8-chloro-benzo[4,5]furo[3,2-d]pyrimidin-2-ylamine trifluoroacetic acid salt], the Ki was 90 nM.

`Nc1nc(N2CC3CNCC3C2)c2oc3ccc(Cl)cc3c2n1` (stereo not shown) [Example 27, 8-Chloro-4-(hexahydro-pyrrolo[3,4-c]pyrrol-2-yl)-benzo[4,5]furo[3,2-d]pyrimidin-2-ylamine trifluoroacetic acid salt]: the Ki stood at 110 nM.

On to `Nc1nc(N2CCC[C@@H](N)C2)c2oc3ccc(Cl)cc3c2n1` [Example 28, (R)-4-(3-Amino-piperidin-1-yl)-8-chloro-benzo[4,5]furo[3,2-d]pyrimidin-2-ylamine trifluoroacetic acid salt], for which the Ki worked out at 110 nM.

Regarding `NCC1CCN(c2nc(N)nc3c2oc2ccc(Cl)cc23)C1` (stereo not shown) [Example 29, 4-(3-Aminomethyl-pyrrolidin-1-yl)-8-chloro-benzo[4,5]furo[3,2-d]pyrimidin-2-ylamine trifluoroacetic acid salt], the Ki is 140 nM.

Regarding `NC[C@H]1CCN(c2nc(N)nc3c2oc2ccc(Cl)cc23)C1` [Example 30, (R)-4-(3-Aminomethyl-pyrrolidin-1-yl)-8-chloro-benzo[4,5]furo[3,2-d]pyrimidin-2-ylamine trifluoroacetic acid salt], the Ki came to 140 nM.

`Nc1nc(N2CCNCC2)c2oc3c(Cl)cc(Cl)cc3c2n1` [Example 31, 6,8-Dichloro-4-piperazin-1-yl-benzo[4,5]furo[3,2-d]pyrimidin-2-ylamine trifluoroacetic acid salt]: the Ki was determined as 140 nM.

On to `Nc1nc(N2CCCNCC2)c2oc3c(Cl)cc(Cl)cc3c2n1` [Example 32, 6,8-Dichloro-4-[1,4]diazepan-1-yl-benzo[4,5]furo[3,2-d]pyrimidin-2-ylamine trifluoroacetic acid salt], for which the Ki turned out to be 160 nM.

`Nc1nc(N2C[C@@H]3C[C@H]2CN3)c2oc3ccccc3c2n1` [Example 33, (S,S)-4-(2,5-Diaza-bicyclo[2.2.1]hept-2-yl)-benzo[4,5]furo[3,2-d]pyrimidin-2-ylamine trifluoroacetic acid salt]: the Ki was 200 nM.

On to `CC(C)N1CCN(c2nc(N)nc3c2oc2ccc(Cl)cc23)CC1` [Example 34, 8-Chloro-4-(4-isopropyl-piperazin-1-yl)-benzo[4,5]furo[3,2-d]pyrimidin-2-ylamine trifluoroacetic acid salt], for which the inhibition constant Ki is 240 nM.

Turning to `CN(C)C1CCN(c2nc(N)nc3c2oc2c(Cl)cc(Cl)cc23)C1` (stereo not shown) [Example 35, 6,8-Dichloro-4-(3-dimethylamino-pyrrolidin-1-yl)-benzo[4,5]furo[3,2-d]pyrimidin-2-ylamine trifluoroacetic acid salt], the Ki was determined as 380 nM.

`Nc1nc(N2CCN3CCCCC3C2)c2oc3ccccc3c2n1` (stereo not shown) [Example 36, 4-(Octahydro-pyrido[1,2-a]pyrazin-2-yl)-benzo[4,5]furo[3,2-d]pyrimidin-2-ylamine trifluoroacetic acid salt]: the Ki was found to be 680 nM.

For the molecule `Nc1nc(N2CCN3CCCCC3C2)c2oc3c(Cl)cc(Cl)cc3c2n1` (stereo not shown) [Example 37, 6,8-Dichloro-4-(octahydro-pyrido[1,2-a]pyrazin-2-yl)-benzo[4,5]furo[3,2-d]pyrimidin-2-ylamine trifluoroacetic acid salt], the Ki was 790 nM.

For the molecule `Nc1nc(N2C[C@@H]3C[C@H]2CN3)c2oc3c(Cl)cc(Cl)cc3c2n1` [Example 38, (S,S)-6,8-Dichloro-4-(2,5-diaza-bicyclo[2.2.1]hept-2-yl)-benzo[4,5]furo[3,2-d]pyrimidin-2-ylamine trifluoroacetic acid salt], the Ki was > 10000 nM.

With `CN[C@@H]1CCN(c2nc(N)nc3c2oc2ccc(F)cc23)C1` [Example 39, (R)-8-Fluoro-4-(3-methylamino-pyrrolidin-1-yl)-benzo[4,5]furo[3,2-d]pyrimidin-2-ylamine trifluoroacetic acid salt], the Ki is 2.3 nM.

For the molecule `CN1CCC(N(C)c2nc(N)nc3c2oc2ccc(F)cc23)C1` (stereo not shown) [Example 41, 8-Fluoro-N^4-methyl-N^4-(1-methyl-pyrrolidin-3-yl)-benzo[4,5]furo[3,2-d]pyrimidine-2,4-diamine trifluoroacetic acid salt], the Ki worked out at 110 nM.

With `CN[C@@H]1CCN(c2nc(N)nc3c2oc2ncccc23)C1` [Example 42, (R)-8-(3-Methylamino-pyrrolidin-1-yl)-9-oxa-1,5,7-triaza-fluoren-6-ylamine], the Ki was 71 nM.

The values are drawn from patent US8030321B2, “Benzofuro- and benzothienopyrimidine modulators of the histamine H4 receptor” (Janssen Pharmaceutica, NV, priority 2006, dated 2011).
